Test results from ChEMBL document CHEMBL1136896, “Synthesis and biological evaluation of arylhydrazinocyanoacrylates and N-aryl pyrazolecarboxylates” (2009).

Legend:
Assay type in all cases: functional
Digitaria sanguinalis [1] = experiment: Herbicidal activity against Digitaria sanguinalis at 1.5 kg/hectare administered postemergence of first true leaf measured after 10 days; conditions: post-emergence, 240 h
[2] = system: Botryosphaeria berengeriana; experiment: Fungicidal activity against Physalospora pyricola assessed as inhibition of mycelium growth at 50 mg/L after 72 hrs
Brassica napus [3] = experiment: Herbicidal activity against Brassica napus L. at 1.5 kg/hectare administered preemergence of first true leaf measured after 10 days; conditions: pre-emergence, 240 h
Amaranthus retroflexus [4] = experiment: Herbicidal activity against Amaranthus retroflexus at 1.5 kg/hectare administered postemergence of first true leaf measured after 10 days; conditions: post-emergence, 240 h
Brassica napus [5] = experiment: Herbicidal activity against Brassica napus at 1.5 kg/hectare administered postemergence of first true leaf measured after 10 days; conditions: post-emergence, 240 h
Cladosporium cucumerinum = experiment: Fungicidal activity against Cladosporium cucumerinum assessed as inhibition of mycelium growth at 50 mg/L after 72 hrs
Fusarium graminearum = experiment: Fungicidal activity against Gibberella zeae assessed as inhibition of mycelium growth at 50 mg/L after 72 hrs
Medicago sativa [6] = experiment: Herbicidal activity against Medicago sativa at 1.5 kg/hectare administered postemergence of first true leaf measured after 10 days; conditions: post-emergence, 240 h
Mycosphaerella arachidis = experiment: Fungicidal activity against Cercospora arachidicola assessed as inhibition of mycelium growth at 50 mg/L after 72 hrs
Digitaria sanguinalis [7] = experiment: Herbicidal activity against Digitaria sanguinalis (L.) Scop. at 1.5 kg/hectare administered preemergence of first true leaf measured after 10 days; conditions: pre-emergence, 240 h
Medicago sativa [8] = experiment: Herbicidal activity against Medicago sativa at 1.5 kg/hectare administered preemergence of first true leaf measured after 10 days; conditions: pre-emergence, 240 h
Alternaria solani = experiment: Fungicidal activity against Alternaria solani assessed as inhibition of mycelium growth at 50 mg/L after 72 hrs
Amaranthus retroflexus [9] = experiment: Herbicidal activity against Amaranthus retroflexus at 1.5 kg/hectare administered preemergence of first true leaf measured after 10 days; conditions: pre-emergence, 240 h
Cucumis sativus = experiment: Growth regulatory activity in cucumber assessed as root growth at 10 mg/L incubated in dark for 5 days

In the case of `CCOCCOC(=O)c1c(C(C)C)nn(-c2ccc(C)cc2)c1N`, the inhibition at 1500 g/ha (Digitaria sanguinalis [1]) is reported as 0%, the inhibition at 50 µg/mL [2] is reported as 13.3% and the inhibition at 1500 g/ha (Brassica napus [3]) is reported as 15%. For the same compound, the inhibition at 1500 g/ha (Amaranthus retroflexus [4]) was 0%, the inhibition at 1500 g/ha (Brassica napus [5]) was 40.7% and the inhibition at 50 µg/mL (Cladosporium cucumerinum) was 40%. It also gave an inhibition at 50 µg/mL (Fusarium graminearum) of 51.1%, an inhibition at 1500 g/ha (Medicago sativa [6]) of 20% and an inhibition at 50 µg/mL (Mycosphaerella arachidis) of 20.6%. It also gave an inhibition at 1500 g/ha (Digitaria sanguinalis [7]) of 0%, an inhibition at 1500 g/ha (Medicago sativa [8]) of 0% and an inhibition at 50 µg/mL (Alternaria solani) of 12%. It also gave an inhibition at 1500 g/ha (Amaranthus retroflexus [9]) of 0% and an Activity (Cucumis sativus) of 21.9%.
With `CCOCCOC(=O)c1c(SC)nn(-c2ccc(C)cc2)c1N` the inhibition at 1500 g/ha (Digitaria sanguinalis [1]) was 0%, the inhibition at 50 µg/mL [2] was 22.7% and the inhibition at 1500 g/ha (Brassica napus [3]) was 10%. It also gave an inhibition at 1500 g/ha (Amaranthus retroflexus [4]) of 38%, an inhibition at 1500 g/ha (Brassica napus [5]) of 52.7% and an inhibition at 50 µg/mL (Cladosporium cucumerinum) of 20%. For the same compound, the inhibition at 50 µg/mL (Fusarium graminearum) was 46.7%, the inhibition at 1500 g/ha (Medicago sativa [6]) was 0% and the inhibition at 50 µg/mL (Mycosphaerella arachidis) was 35.3%. For the same compound, the inhibition at 1500 g/ha (Digitaria sanguinalis [7]) was 0%, the inhibition at 1500 g/ha (Medicago sativa [8]) was 0% and the inhibition at 50 µg/mL (Alternaria solani) was 28%. The inhibition at 1500 g/ha (Amaranthus retroflexus [9]) was 0% and the Activity (Cucumis sativus) was 66.6%.
In the case of `CCOCCOC(=O)c1c(CC)nn(-c2ccc(Cl)cc2)c1N`, the inhibition at 1500 g/ha (Digitaria sanguinalis [1]) is reported as 0%, the inhibition at 50 µg/mL [2] is reported as 38.7% and the inhibition at 1500 g/ha (Brassica napus [3]) is reported as 0%. The inhibition at 1500 g/ha (Amaranthus retroflexus [4]) was 0%, the inhibition at 1500 g/ha (Brassica napus [5]) was 0% and the inhibition at 50 µg/mL (Cladosporium cucumerinum) was 14.5%. For the same compound, the inhibition at 50 µg/mL (Fusarium graminearum) was 53.3%, the inhibition at 1500 g/ha (Medicago sativa [6]) was 0% and the inhibition at 50 µg/mL (Mycosphaerella arachidis) was 41.2%. For the same compound, the inhibition at 1500 g/ha (Digitaria sanguinalis [7]) was 0%, the inhibition at 1500 g/ha (Medicago sativa [8]) was 0% and the inhibition at 50 µg/mL (Alternaria solani) was 0%. For the same compound, the inhibition at 1500 g/ha (Amaranthus retroflexus [9]) was 0% and the Activity (Cucumis sativus) was 111.3%.
`CCOCCOC(=O)c1c(SC)nn(-c2ccc(Cl)cc2)c1N` gave an inhibition at 1500 g/ha (Digitaria sanguinalis [1]) of 0%, an inhibition at 50 µg/mL [2] of 36% and an inhibition at 1500 g/ha (Brassica napus [3]) of 0%. The inhibition at 1500 g/ha (Amaranthus retroflexus [4]) was 0%, the inhibition at 1500 g/ha (Brassica napus [5]) was 0% and the inhibition at 50 µg/mL (Cladosporium cucumerinum) was 23.6%. It also gave an inhibition at 50 µg/mL (Fusarium graminearum) of 37.8%, an inhibition at 1500 g/ha (Medicago sativa [6]) of 0% and an inhibition at 50 µg/mL (Mycosphaerella arachidis) of 26.5%. The inhibition at 1500 g/ha (Digitaria sanguinalis [7]) was 0%, the inhibition at 1500 g/ha (Medicago sativa [8]) was 0% and the inhibition at 50 µg/mL (Alternaria solani) was 20%. It also gave an inhibition at 1500 g/ha (Amaranthus retroflexus [9]) of 0% and an Activity (Cucumis sativus) of 66.6%.
Work on `O=C(O)Cc1c[nH]c2ccccc12` [INDOLE-3-ACETIC ACID] yielded an Activity (Cucumis sativus) greater than 150%.
`CCOCCOC(=O)c1c(CC)nn(-c2ccccc2)c1N` gave an inhibition at 1500 g/ha (Digitaria sanguinalis [1]) of 0%, an inhibition at 50 µg/mL [2] of 1.3% and an inhibition at 1500 g/ha (Brassica napus [3]) of 0%. For the same compound, the inhibition at 1500 g/ha (Amaranthus retroflexus [4]) was 0%, the inhibition at 1500 g/ha (Brassica napus [5]) was 61.5% and the inhibition at 50 µg/mL (Cladosporium cucumerinum) was 18.2%. The inhibition at 50 µg/mL (Fusarium graminearum) was 46.7%, the inhibition at 1500 g/ha (Medicago sativa [6]) was 0% and the inhibition at 50 µg/mL (Mycosphaerella arachidis) was 35.3%. For the same compound, the inhibition at 1500 g/ha (Digitaria sanguinalis [7]) was 0%, the inhibition at 1500 g/ha (Medicago sativa [8]) was 0% and the inhibition at 50 µg/mL (Alternaria solani) was 20%. For the same compound, the inhibition at 1500 g/ha (Amaranthus retroflexus [9]) was 0% and the Activity (Cucumis sativus) was 46.3%.
Compound `CCOCCOC(=O)c1c(C(C)C)nn(-c2ccc(Cl)cc2)c1N` has an inhibition at 1500 g/ha (Digitaria sanguinalis [1]) of 0%, an inhibition at 50 µg/mL [2] of 33.3% and an inhibition at 1500 g/ha (Brassica napus [3]) of 40%. The inhibition at 1500 g/ha (Amaranthus retroflexus [4]) was 0%, the inhibition at 1500 g/ha (Brassica napus [5]) was 26.4% and the inhibition at 50 µg/mL (Cladosporium cucumerinum) was 23.6%. It also gave an inhibition at 50 µg/mL (Fusarium graminearum) of 44.4%, an inhibition at 1500 g/ha (Medicago sativa [6]) of 0% and an inhibition at 50 µg/mL (Mycosphaerella arachidis) of 23.5%. The inhibition at 1500 g/ha (Digitaria sanguinalis [7]) was 0%, the inhibition at 1500 g/ha (Medicago sativa [8]) was 0% and the inhibition at 50 µg/mL (Alternaria solani) was 0%. For the same compound, the inhibition at 1500 g/ha (Amaranthus retroflexus [9]) was 0% and the Activity (Cucumis sativus) was 38.2%.
With `CC1COC(Cn2cncn2)(c2ccc(Oc3ccc(Cl)cc3)cc2Cl)O1` (stereo not given) [DIFENOCONAZOLE] the inhibition at 50 µg/mL [2] was 100%, the inhibition at 50 µg/mL (Cladosporium cucumerinum) was 100% and the inhibition at 50 µg/mL (Fusarium graminearum) was 100%. For the same compound, the inhibition at 50 µg/mL (Mycosphaerella arachidis) was 100% and the inhibition at 50 µg/mL (Alternaria solani) was 100%.
